Data taken from patent US10865208B2, “ATG7 inhibitors and the uses thereof” (Millennium Pharmaceuticals, Inc., priority 2016, dated 2020).

Target: recombinant human His-ATG7 enzyme (Homo sapiens (Human), UniProt O95352)
Assay: ATG7 Enzyme Assay (HTRF/FRET, ATG3-GST and Flag-Gabarap)
Format: biochemical
Settings: for inhibition at 0.123 µM: Concentration 0.123 μM; for inhibition at 0.111 µM: Concentration 0.111 μM
Procedure: Example 97: ATG7 Enzyme Assay
The total volume of the ATG7 enzymatic assay is 50 μL and contains 50 mM HEPES Hemisodium (pH 7.5), 0.05% BSA, 0.01% Tween-20, 25 mM NaCl, 5 mM MgCl2, 10 μM ATP, 250 μM GSH, 5 nM ATG3-GST, 5 nM Flag-Gabarap, 100 μM TCEP and 0.15 nM recombinant human His-ATG7 enzyme. The enzymatic reaction mixture, with and without inhibitor, was incubated at 24° C. for 105 min in a 384-well plate before termination with […] of Stop/Detection buffer (0.1M HEPES Hemisodium pH 7.5, 0.05% Tween20, 20 mM EDTA, 410 mM KF, 0.53 nM Europium-Cryptate labeled monoclonal anti-Flag M2 Antibody (CisBio International) and 8.125 μg/ml PHYCOLINK goat anti-GST allophycocyanin (XL-APC) antibody (Prozyme)). After incubation for 2 hours at 24° C., quantification of FRET is performed on the Pherostar™ (BMG Labtech). Percentage inhibition values at a single concentration or enzyme inhibition (IC50) values are determined from those curves. One skilled in the art will appreciate that the values generated either as percentage inhibition at a single concentration or IC50 values are subject to experimental variation.

recombinant human His-ATG7 enzyme, sequence (O95352 whole entry): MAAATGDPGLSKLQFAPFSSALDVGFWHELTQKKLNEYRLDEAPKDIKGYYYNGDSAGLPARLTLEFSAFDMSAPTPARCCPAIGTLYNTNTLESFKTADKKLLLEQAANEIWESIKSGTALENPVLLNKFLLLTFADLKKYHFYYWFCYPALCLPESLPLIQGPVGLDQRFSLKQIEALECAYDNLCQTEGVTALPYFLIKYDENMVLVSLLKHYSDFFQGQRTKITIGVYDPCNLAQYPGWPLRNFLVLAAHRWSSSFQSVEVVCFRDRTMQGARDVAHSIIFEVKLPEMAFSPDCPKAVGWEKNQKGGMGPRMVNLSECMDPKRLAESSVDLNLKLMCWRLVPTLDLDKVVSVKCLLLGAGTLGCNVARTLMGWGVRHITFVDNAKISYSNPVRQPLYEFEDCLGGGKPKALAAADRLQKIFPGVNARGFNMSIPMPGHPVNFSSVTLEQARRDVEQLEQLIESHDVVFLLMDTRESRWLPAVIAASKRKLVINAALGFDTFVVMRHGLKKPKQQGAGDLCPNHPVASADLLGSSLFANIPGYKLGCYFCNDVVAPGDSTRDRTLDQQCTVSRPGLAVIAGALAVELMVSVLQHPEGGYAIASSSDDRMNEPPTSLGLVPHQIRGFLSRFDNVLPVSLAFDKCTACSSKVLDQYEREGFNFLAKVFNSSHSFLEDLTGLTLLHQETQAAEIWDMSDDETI

Compound | IC50 | inhibition at 0.123 µM (read-out: Percent Inhibition) | inhibition at 0.111 µM (read-out: Percent Inhibition) | inhibition at 0.069 µM (Concentration 0.069 μM, read-out: Percent Inhibition)
C=Cc1nn([C@@H]2O[C@H](COS(N)(=O)=O)[C@@H](O)[C@H]2O)c2ncnc(N)c12 [Compound I-18, [(2R,3S,4R,5R)-5-(4-amino-3-vinyl-1H-pyrazolo[3,4-d]pyrimidin-1-yl)-3,4-dihydroxytetrahydrofuran-2-yl]methyl Sulfamate] | 50 to 100 nM | 62% |  | 
COCc1nn([C@@H]2O[C@H](COS(N)(=O)=O)[C@@H](O)[C@H]2O)c2ncnc(N)c12 [Compound I-19, {(2R,3S,4R,5R)-5-[4-amino-3-(methoxymethyl)-1H-pyrazolo[3,4-d]pyrimidin-1-yl]-3,4-dihydroxytetrahydrofuran-2-yl}methyl Sulfamate] | 100 to 500 nM | 32% |  | 
CC(=O)c1nn([C@@H]2O[C@H](COS(N)(=O)=O)[C@@H](O)[C@H]2O)c2ncnc(N)c12 [Compound I-21, [(2R,3S,4R,5R)-5-(3-acetyl-4-amino-1H-pyrazolo[3,4-d]pyrimidin-1-yl)-3,4-dihydroxytetrahydrofuran-2-yl]methyl Sulfamate] | 100 to 500 nM | 22% |  | 
CC(C)(O)c1nn([C@@H]2O[C@H](COS(N)(=O)=O)[C@@H](O)[C@H]2O)c2ncnc(N)c12 [Compound I-24, {(2R,3S,4R,5R)-5-[4-amino-3-(2-hydroxypropan-2-yl)-1H-pyrazolo[3,4-d]pyrimidin-1-yl]-3,4-dihydroxytetrahydrofuran-2-yl}methyl Sulfamate] | > 500 nM | 11% |  | 
Nc1ncnc2c1c(C(F)F)nn2[C@@H]1O[C@H](COS(N)(=O)=O)[C@@H](O)[C@H]1O [Compound I-25, {(2R,3S,4R,5R)-5-[4-amino-3-(difluoromethyl)-1H-pyrazolo[3,4-d]pyrimidin-1-yl]-3,4-dihydroxytetrahydrofuran-2-yl}methyl Sulfamate] | 50 to 100 nM | 64% |  | 
Nc1ncnc2c1c(C1CC1)nn2[C@@H]1O[C@H](COS(N)(=O)=O)[C@@H](O)[C@H]1O [Compound I-26, [(2R,3S,4R,5R)-5-(4-amino-3-cyclopropyl-1H-pyrazolo[3,4-d]pyrimidin-1-yl)-3,4-dihydroxytetrahydrofuran-2-yl]methyl Sulfamate] | 50 to 100 nM | 53% |  | 
Nc1ncnc2c1c(OC(F)F)nn2[C@@H]1O[C@H](COS(N)(=O)=O)[C@@H](O)[C@H]1O [Compound I-27, {(2R,3S,4R,5R)-5-[4-amino-3-(difluoromethoxy)-1H-pyrazolo[3,4-d]pyrimidin-1-yl]-3,4-dihydroxytetrahydrofuran-2-yl}methyl Sulfamate] | 20 to 50 nM | 78% |  | 
CC(C)(O)CSc1nn([C@@H]2O[C@H](COS(N)(=O)=O)[C@@H](O)[C@H]2O)c2ncnc(N)c12 [Compound I-28, [(2R,3S,4R,5R)-5-{4-amino-3-[(2-hydroxy-2-methylpropyl)sulfanyl]-1H-pyrazolo[3,4-d]pyrimidin-1-yl}-3,4-dihydroxytetrahydrofuran-2-yl]methyl sulfamate] | 50 to 100 nM | 71% |  | 
N#CCc1nn([C@@H]2O[C@H](COS(N)(=O)=O)[C@@H](O)[C@H]2O)c2ncnc(N)c12 [Compound I-29, {(2R,3S,4R,5R)-5-[4-amino-3-(cyanomethyl)-1H-pyrazolo[3,4-d]pyrimidin-1-yl]-3,4-dihydroxytetrahydrofuran-2-yl}methyl Sulfamate] | > 500 nM | 26% |  | 
Nc1ncnc2c1c(-c1nccs1)nn2[C@@H]1O[C@H](COS(N)(=O)=O)[C@@H](O)[C@H]1O [Compound I-30, {(2R,3S,4R,5R)-5-[4-amino-3-(1,3-thiazol-2-yl)-1H-pyrazolo[3,4-d]pyrimidin-1-yl]-3,4-dihydroxytetrahydrofuran-2-yl}methyl sulfamate] | > 500 nM | 15% |  | 
Cc1cccc(CSc2nn([C@@H]3O[C@H](COS(N)(=O)=O)[C@@H](O)[C@H]3O)c3ncnc(N)c23)c1 [Compound I-31, [(2R,3S,4R,5R)-5-{4-amino-3-[(3-methylbenzyl)sulfanyl]-1H-pyrazolo[3,4-d]pyrimidin-1-yl}-3,4-dihydroxytetrahydrofuran-2-yl]methyl sulfamate] | 20 to 50 nM | 85% |  | 
Nc1ncnc2c1c(SCc1ccc(OC(F)(F)F)cc1)nn2[C@@H]1O[C@H](COS(N)(=O)=O)[C@@H](O)[C@H]1O [Compound I-32, [(2R,3S,4R,5R)-5-(4-amino-3-{[4-(trifluoromethoxy)benzyl]sulfanyl}-1H-pyrazolo[3,4-d]pyrimidin-1-yl)-3,4-dihydroxytetrahydrofuran-2-yl]methyl sulfamate] | 20 to 50 nM | 73% |  | 
Nc1ncnc2c1c(SCc1ccc(C(F)(F)F)cc1)nn2[C@@H]1O[C@H](COS(N)(=O)=O)[C@@H](O)[C@H]1O [Compound I-33, [(2R,3S,4R,5R)-5-(4-amino-3-{[4-(trifluoromethyl)benzyl]sulfanyl}-1H-pyrazolo[3,4-d]pyrimidin-1-yl)-3,4-dihydroxytetrahydrofuran-2-yl]methyl sulfamate] | 20 to 50 nM | 82% |  | 
Nc1ncnc2c1c(Sc1ccc(Cl)cc1Cl)nn2[C@@H]1O[C@H](COS(N)(=O)=O)[C@@H](O)[C@H]1O [Compound I-34, [(2R,3S,4R,5R)-5-{4-amino-3-[(2,4-dichlorophenyl)sulfanyl]-1H-pyrazolo[3,4-d]pyrimidin-1-yl}-3,4-dihydroxytetrahydrofuran-2-yl]methyl sulfamate] | 50 to 100 nM | 70% |  | 

More lines, now with the values ahead:

IC50 | inhibition at 0.123 µM (read-out: Percent Inhibition) | inhibition at 0.111 µM (read-out: Percent Inhibition) | inhibition at 0.069 µM (Concentration 0.069 μM, read-out: Percent Inhibition) | Compound
20 to 50 nM | 72% |  |  | COCCSc1nn([C@@H]2O[C@H](COS(N)(=O)=O)[C@@H](O)[C@H]2O)c2ncnc(N)c12 [Compound I-35, [(2R,3S,4R,5R)-5-{4-amino-3-[(2-methoxyethyl)sulfanyl]-1H-pyrazolo[3,4-d]pyrimidin-1-yl}-3,4-dihydroxytetrahydrofuran-2-yl]methyl sulfamate]
< 20 nM |  | 88% |  | Nc1ncnc2c1c(Sc1cn[nH]c1)nn2[C@@H]1O[C@H](COS(N)(=O)=O)[C@@H](O)[C@H]1O [Compound I-36, {(2R,3S,4R,5R)-5-[4-amino-3-(1H-pyrazol-4-ylsulfanyl)-1H-pyrazolo[3,4-d]pyrimidin-1-yl]-3,4-dihydroxytetrahydrofuran-2-yl}methyl sulfamate]
> 500 nM |  |  | 7% | Nc1ncnc2c1c(Oc1ccccc1)nn2[C@@H]1O[C@H](COS(N)(=O)=O)[C@@H](O)[C@H]1O [Compound I-37, [(2R,3S,4R,5R)-5-(4-amino-3-phenoxy-1H-pyrazolo[3,4-d]pyrimidin-1-yl)-3,4-dihydroxytetrahydrofuran-2-yl]methyl sulfamate]
20 to 50 nM | 84% |  |  | COc1ccc(CSc2nn([C@@H]3O[C@H](COS(N)(=O)=O)[C@@H](O)[C@H]3O)c3ncnc(N)c23)cc1 [Compound I-38, [(2R,3S,4R,5R)-5-{4-amino-3-[(4-methoxybenzyl)sulfanyl]-1H-pyrazolo[3,4-d]pyrimidin-1-yl}-3,4-dihydroxytetrahydrofuran-2-yl]methyl sulfamate]
20 to 50 nM | 75% |  |  | Cc1ccccc1CSc1nn([C@@H]2O[C@H](COS(N)(=O)=O)[C@@H](O)[C@H]2O)c2ncnc(N)c12 [Compound I-39, [(2R,3S,4R,5R)-5-{4-amino-3-[(2-methylbenzyl)sulfanyl]-1H-pyrazolo[3,4-d]pyrimidin-1-yl}-3,4-dihydroxytetrahydrofuran-2-yl]methyl sulfamate]
< 20 nM | 85% |  |  | Nc1ncnc2c1c(Sc1cccc(Cl)c1)nn2[C@@H]1O[C@H](COS(N)(=O)=O)[C@@H](O)[C@H]1O [Compound I-40, [(2R,3S,4R,5R)-5-{4-amino-3-[(3-chlorophenyl)sulfanyl]-1H-pyrazolo[3,4-d]pyrimidin-1-yl}-3,4-dihydroxytetrahydrofuran-2-yl]methyl sulfamate]
20 to 50 nM |  | 85% |  | Cc1ccc(CSc2nn([C@@H]3O[C@H](COS(N)(=O)=O)[C@@H](O)[C@H]3O)c3ncnc(N)c23)cc1 [Compound I-41, [(2R,3S,4R,5R)-5-{4-amino-3-[(4-methylbenzyl)sulfanyl]-1H-pyrazolo[3,4-d]pyrimidin-1-yl}-3,4-dihydroxytetrahydrofuran-2-yl]methyl sulfamate]
< 20 nM |  | 79% |  | CSc1nn([C@@H]2O[C@H](COS(N)(=O)=O)[C@@H](O)[C@H]2O)c2ncnc(N)c12 [Compound I-42, {(2R,3S,4R,5R)-5-[4-amino-3-(methylsulfanyl)-1H-pyrazolo[3,4-d]pyrimidin-1-yl]-3,4-dihydroxytetrahydrofuran-2-yl}methyl Sulfamate]
20 to 50 nM | 75% |  |  | C#CCSc1nn([C@@H]2O[C@H](COS(N)(=O)=O)[C@@H](O)[C@H]2O)c2ncnc(N)c12 [Compound I-43, {(2R,3S,4R,5R)-5-[4-amino-3-(prop-2-yn-1-ylsulfanyl)-1H-pyrazolo[3,4-d]pyrimidin-1-yl]-3,4-dihydroxytetrahydrofuran-2-yl}methyl sulfamate]
